Here are results for 17 compounds from patent US20020028938A1, “Prostaglandin endoperoxide H synthase biosynthesis inhibitors” (priority 1997, published 2002).

Data set [1] has as its target T1, Human Whole Platelet Cyclooxygenase-1 (Homo sapiens, UniProt P23219).
T1 construct: from tissue; host or cells: human blood: isolated platelets (A4) or heparinised whole blood (A9)
Description: Human Whole Platelet Cyclooxygenase-1 assay (HWPX). As to conditions: for IC50: read-out: HWPX IC50 (parenthetical value). The data set is classed as cell-based. On the procedure:
Blood from normal healthy volunteers is collected into tubes containing ACD (acid citrate dextrose) as the anticoagulant. This blood is centrifuged at 175×g to prepare platelet rich plasma. The platelet rich plasma is then centrifuged at 100×g to pellet the white blood cells, leaving the platelets in the supernatant. The supernatant is layered on a cushion of 0.7 mL of 10% bovine serum albumin in Tyrodes solution (Gibco; Grand Island, N.Y.) and then centrifuged at 1000×g. The resulting supernatant from this centrifuigation is then removed and 11 mL of Tyrodes solution is added to the remaining pellet of platelets. The platelets are then aliquoted at 120 μl into a 96 well plate. Experimental compounds are added and allowed to pre-incubate for 10 minutes. At the end of this pre-incubation period, the calcium ionophore A23187 is added to a final concentration of 8.8 μM and the incubation is continued for ten minutes. The reaction is stopped by adding cold 6 mM EDTA, the incubation mixture is centrifuged at 220×g, and the supernatants are then analyzed for thromboxane using a commercial kit from Cayman Chemical (Ann Arbor, Mich.

Data set [2] has as its target T2, human amnionic whole cell cyclooxygenase-2 (WISH cells) (Homo sapiens, UniProt P35354).
T2 construct: endogenous in cells; host or cells: human amnionic WISH cells, induced with IL-1beta
T2 sequence (P35354 18-604): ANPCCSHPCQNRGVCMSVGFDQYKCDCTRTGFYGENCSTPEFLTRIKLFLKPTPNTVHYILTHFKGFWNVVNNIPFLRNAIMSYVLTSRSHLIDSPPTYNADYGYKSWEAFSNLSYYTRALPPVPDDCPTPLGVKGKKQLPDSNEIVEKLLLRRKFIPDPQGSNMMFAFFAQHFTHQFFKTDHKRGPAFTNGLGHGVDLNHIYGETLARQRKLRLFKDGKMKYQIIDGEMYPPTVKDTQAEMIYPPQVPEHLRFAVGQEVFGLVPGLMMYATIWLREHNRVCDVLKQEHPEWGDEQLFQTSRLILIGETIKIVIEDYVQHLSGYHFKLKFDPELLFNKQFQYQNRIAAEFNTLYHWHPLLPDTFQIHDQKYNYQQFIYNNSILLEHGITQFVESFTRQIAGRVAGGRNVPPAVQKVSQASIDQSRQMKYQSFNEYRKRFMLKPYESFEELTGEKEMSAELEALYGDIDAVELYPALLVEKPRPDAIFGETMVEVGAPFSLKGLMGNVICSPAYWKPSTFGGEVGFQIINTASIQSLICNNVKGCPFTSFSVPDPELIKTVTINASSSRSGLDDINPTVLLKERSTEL
The experiment in a line: IL-1β induced PGE2 production in WISH cells. The class given is cell-based. Particulars: for IC50: read-out: Wish IC50 (parenthetical value); for inhibition at 0.1 µM / inhibition at 1 µM: read-out: Wish % Inhib. at Dose. The method, then: EIA reagents for prostaglandin determination were purchased from Perseptive Diagnostics, (Cambridge, Mass.). Prostaglandin E2 (PGE2) levels in lavage fluids were determined after the samples were dried under nitrogen and reconstituted with assay buffer. PGE2 levels in enzyme assays or cell culture media were measured against standards prepared in the same milieu. The immunoassays were conducted as recommended by the manufacturer. The EIA was conducted in 96 well microtiter plates (Nunc Roskilde, Denmark) and optical density was measured using a microplate reader (Vmax, Molecular Devices Corp., Menlo Park, Calif.).
Human amnionic WISH cells were grown to 80% confluence in 48 well plates. Following removal of the growth medium and two washings with Geys Balanced Salt Solutn, 5 ng IL-1β /ml (UBI, Lake Placid, N.Y.) was added to the cells with or without test compound in DMSO (0.01% v/v) in Neuman-Tytell Serumless Medium (GIBCO, Grand Island, N.Y.).

Data set [3] concerns the target T3, recombinant human Cox-2 (r-hu Cox-2) (Homo sapiens, UniProt P35354).
T3 construct: made in house; host or cells: baculovirus/Sf9 insect cells (microsomes)
T3 sequence (P35354 18-604): T2 sequence (P35354 18-604)
Description: Recombinant human PGHS-2 enzyme assay (RHUCX2). Particulars: for IC50: read-out: RHUCX2 IC50 (parenthetical value). The data set is classed as biochemical. In short, it runs like this:
(§1)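 PGE2 production measured by enzyme immunoassay with standards in the same milieu. Inhibition was computed versus control group mean and IC50 estimated by linear regression.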

The target in data set [4] is T4, recombinant human Cox-1 (r-hu Cox1) (Homo sapiens, UniProt P23219).
T4 construct: made in house; host or cells: baculovirus/Sf9 insect cells (microsomes)
T4 sequence (P23219 24-599): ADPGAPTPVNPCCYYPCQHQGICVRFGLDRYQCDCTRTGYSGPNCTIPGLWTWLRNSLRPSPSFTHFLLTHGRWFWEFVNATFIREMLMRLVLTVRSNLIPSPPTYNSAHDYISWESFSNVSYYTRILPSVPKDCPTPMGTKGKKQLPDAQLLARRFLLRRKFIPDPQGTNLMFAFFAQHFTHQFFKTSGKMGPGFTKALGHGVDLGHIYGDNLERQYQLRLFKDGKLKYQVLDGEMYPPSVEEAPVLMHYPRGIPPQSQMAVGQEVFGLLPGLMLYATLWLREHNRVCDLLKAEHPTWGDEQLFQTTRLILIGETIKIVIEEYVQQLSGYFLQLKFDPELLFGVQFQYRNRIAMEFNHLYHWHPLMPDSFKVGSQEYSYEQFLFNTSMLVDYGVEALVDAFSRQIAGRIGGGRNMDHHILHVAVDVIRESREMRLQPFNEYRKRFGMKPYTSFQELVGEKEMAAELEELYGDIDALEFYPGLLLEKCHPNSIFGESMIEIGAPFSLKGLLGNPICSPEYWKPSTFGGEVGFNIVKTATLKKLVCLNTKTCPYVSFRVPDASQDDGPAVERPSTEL
The experiment in a line: Recombinant human PGHS-1 enzyme assay (RHUCX1). The class given is biochemical. Particulars: 100 μM; read-out: RHUCX1 % Inh. at Dose. The gist of the method: as §1

[5] abbreviates: read-out: HWPX % Inhib. at Dose.
Setting [6] is: read-out: RHUCX2 % Inh. at Dose.

T1 sequence (P23219 24-599): as above

In general, melting point refers to the temperature of the solid-liquid transition. `CS(=O)(=O)c1ccc(-c2cnn(Cc3ccccc3)c(=O)c2Oc2ccc(F)cc2)cc1` [Example 75]: the melting point fell in the range of 188 to 190 °C. In addition, the inhibition at 3 µM in data set [1] (3 μM, read-out: HWPX % Inhib. at Dose) stood at 0%. In addition, the inhibition at 10 µM in data set [1] (setting [5]) came out at 84%.
In general, IC50 refers to the point on the concentration scale where inhibition reaches its midpoint. For `CC(c1ccc(F)c(F)c1)n1ncc(-c2ccc(S(N)(=O)=O)cc2)c(-c2ccc(F)cc2)c1=O` (stereo not drawn) [Example 148, 2-(α-Methyl-3,4-difluorobenzyl)-4-(4-fluorophenyl)-5-[4-(aminosulfonlI)phenyl]-3(2H)-pyridazinone], the melting point lay in the range of 214 to 215 °C. The inhibition at 0.3 µM in data set [1] (0.3 μM, read-out: HWPX % Inhib. at Dose) turned out to be 51%. Moreover, in data set [2], the IC50 stood at 0.042 µM.
As to `Cc1cc(-n2ncc(-c3ccc(S(C)(=O)=O)cc3)c(-c3ccc(F)cc3)c2=O)ccc1F` [Example 189, 2-(4-Fluoro-3-methylphenyl)-4-(4-fluorophenyl)-5-[4-(methylsulfonyl)phenyl]-3(2H)-pyridazinone], the melting point lay within 168 to 170 °C. The inhibition at 100 µM in data set [1] (setting [5]) stood at 31%. The half-inhibitory concentration (IC50) in data set [2] stood at 0.041 µM.
`Cc1cc(-c2c(-c3ccc(S(C)(=O)=O)cc3)cnn(-c3cccc(Cl)c3)c2=O)ccc1F` [Example 244, 2-(3-Chlorophenyl)-4-(4-fluoro-3-methylphenyl)-5-[4-(methylsulfonyl)phenyl]-3(2H)-pyridazinone] registered a melting point of 228 to 230 °C. Besides, the 50% inhibitory concentration (IC50) in data set [1] stood at 3.67 µM. Besides, in data set [2], the half-inhibitory concentration (IC50) stood at 0.019 µM.
`CC(C)COc1c(-c2ccc(S(C)(=O)=O)cc2)cnn(CC(F)(F)F)c1=O` [Example 278, 2-(2,2,2-Trifluoroethyl)-4-(2-methylpropoxy)-5-[4-(methylsulfonyl)phenyl]-3(2H)-pyridazinone] returned a melting point of 108 to 110 °C. In addition, in data set [2], the half-maximal inhibitory concentration (IC50) is 0.07 µM. Besides, in data set [3] (setting [6]), the inhibition at 0.1 µM is 91% and the inhibition at 1 µM was 96%. Moreover, the inhibition at 100 µM in data set [4] turned out to be 36%.
The compound `CC1(COc2c(-c3ccc(S(C)(=O)=O)cc3)cnn(CC(F)(F)F)c2=O)CC1` [Example 279] registered a melting point of 98 to 99 °C. Also, the IC50 in data set [2] was determined as 0.391 µM. In data set [3] (setting [6]), the inhibition at 0.1 µM was 31% and the inhibition at 1 µM came out at 60%. Besides, the inhibition at 100 µM in data set [4] came out at 0%.
In turn, `CS(=O)(=O)c1ccc(-c2cnn(CC(F)(F)F)c(=O)c2SC2CCCCC2)cc1` [Example 287, 2-(2,2,2-Trifluoroethyl)-4-(cyclohexylthio)-5-[4-(methylsulfonyl)phenyl]-3(2H)-pyridazinone] returned a melting point of 165 to 167 °C. Besides, the IC50 in data set [2] worked out at 0.16 µM. For the same compound, in data set [3] (setting [6]), the inhibition at 0.1 µM was found to be 25% and the inhibition at 1 µM turned out to be 79%. Moreover, the inhibition at 10 µM in data set [3] (10 μM, read-out: RHUCX2 % Inh. at Dose) came to 93%. The inhibition at 100 µM in data set [4] worked out at 0%.
Regarding `CS(=O)(=O)c1ccc(-c2cnn(Cc3ccccc3)c(=O)c2-c2ccc(Cl)s2)cc1` [Example 320, 2-Benzyl-4-(5-chloro-2-thienyl)-5-[4-(methylsulfonyl)phenyl]-3(2H)-pyrdazinone], the “HWPX % Inhib. at Dose (μM)” value in data set [1] (3 μM) was 29 @ 3%. For the same compound, the “Wish % Inhib. at Dose (μM)” value is recorded as 15 @ .01% in data set [2] (0.01 μM) and 78 @ .1% in data set [2] (0.1 μM).
Regarding `Cc1ccc(-c2c(-c3ccc(S(C)(=O)=O)cc3)cnn(Cc3ccccc3)c2=O)cc1C` [Example 325, 2-Benzyl-4-(3,4-dimethylphenl)-5-[4-(methylsulfonyl)phenyl]-3(2H)-pyridazinone], the values for the IC50 in data set [1], in data set [2] and in data set [3] were 2.3 µM, 0.04 µM and 0.199 µM, respectively.
`CS(=O)(=O)c1ccc(-c2cnn(-c3cccc(Cl)c3)c(=O)c2Oc2ccccc2)cc1` [Example 343, 2-(3-Chlorophenyl)-4-(phenoxy)-5-[4-(methylsulfonyl)phenyl]-3(2H)-pyridazinone] had a melting point of 205 to 207 °C. For the same compound, in data set [1], the 50% inhibitory concentration (IC50) turned out to be 0.191 µM. In data set [2], the IC50 was 0.016 µM.
In turn, `CN(C)c1cccc(Oc2c(-c3ccc(S(C)(=O)=O)cc3)cnn(-c3cccc(Cl)c3)c2=O)c1` [Example 344, 2-(3-Chlorophenyl)-4-[3-(dimethylamino)phenoxy]-5-[4-(methylsulfonyl)phenyl]-3(2H)-pyridazinone] came in with a melting point of 191 to 193 °C. Moreover, the half-maximal inhibitory concentration (IC50) in data set [2] came out at 0.1 µM. In data set [3], the half-maximal inhibitory concentration (IC50) stood at 0.897 µM. In addition, in data set [4], the inhibition at 100 µM was 16%.
`COc1ccc(Oc2c(-c3ccc(S(C)(=O)=O)cc3)cnn(-c3cccc(Cl)c3)c2=O)cc1` [Example 345, 2-(3-Chloroophenyl)-4-(4-methoxyphenoxy)-5-[4-(methylsulfonyl)phenyl]-3(2H)-pyridazinone]: the melting point lay within 182 to 184 °C. Moreover, in data set [2], the IC50 came to 0.03 µM. In data set [3], the IC50 came to 0.242 µM. Besides, in data set [4], the inhibition at 100 µM was found to be 0%.
On to `CS(=O)(=O)c1ccc(-c2cnn(-c3cccc(Cl)c3)c(=O)c2Sc2ccccn2)cc1` [Example 358, 2-(3-Chlorophenyl)-4-(2-pyridylthio)-5-[4-(methylsulfonyl)phenyl]-3(2H)-pyridazinone], for which the melting point is 110 to 114 °C. The inhibition at 0.1 µM in data set [2] (0.1 μM) came to 0%. Besides, in data set [2], the inhibition at 1 µM is 69%. In addition, the IC50 in data set [3] was determined as 2.45 µM. For the same compound, the inhibition at 100 µM in data set [4] worked out at 30%.
Compound `NS(=O)(=O)c1ccc(-c2cnn(CC=C(F)F)c(=O)c2-c2ccc(F)cc2)cc1F` [Example 408] gave a melting point of 180 to 183 °C. For the same compound, the IC50 in data set [2] is 0.029 µM. Further, the IC50 in data set [3] turned out to be 0.279 µM. Moreover, the inhibition at 100 µM in data set [4] was 0%.
With `CC(C)CCCOc1c(-c2ccc(S(C)(=O)=O)cc2)cnn(-c2ccc(F)cc2)c1=O` [Example 414, 2-(4-Fluorophenyl)-4-(4-methylpentyloxy)-5-[4-(methylsulfonyl)phenyl]-3(2H)-pyridazinone], the melting point lay within 123 to 125 °C. Further, the inhibition at 0.1 µM in data set [2] (0.1 μM) amounted to 46%. Further, the inhibition at 1 µM in data set [2] came out at 54%. Also, in data set [3] (setting [6]), the inhibition at 0.1 µM came out at 76% and the inhibition at 1 µM is 87%. Also, in data set [4], the inhibition at 100 µM stood at 0%.
In turn, `CCC(CC)COc1c(-c2ccc(S(C)(=O)=O)cc2)cnn(-c2ccc(F)cc2)c1=O` [Example 430, 2-(4-Fluorophenyl)-4-(2-ethyl-1-butoxy)-5-[4-(methylsulfonyl)phenyl]-3(2H)-pyridazinone] came in with a melting point of 107 to 108 °C. Also, in data set [1] (setting [5]), the inhibition at 10 µM is 34% and the inhibition at 100 µM was found to be 89%. Moreover, the IC50 in data set [2] was determined as 0.054 µM.
In the case of `COC(Cn1ncc(-c2ccc(S(C)(=O)=O)cc2)c(-c2ccc(F)cc2)c1=O)c1ccccc1` (stereo not drawn) [Example 442, 2-(2-Methoxy-2-phenylethyl)-4-(4-fluorophenyl)-5-[4-(methylsulfonyl)phenyl]-3(2H)-pyridazinone], the melting point was in the range of 135 to 137 °C. Also, in data set [2], the 50% inhibitory concentration (IC50) amounted to 0.42 µM. Moreover, the inhibition at 0.01 µM in data set [3] (0.01 μM, read-out: RHUCX2 % Inh. at Dose) came out at 56%. For the same compound, the inhibition at 0.1 µM in data set [3] (setting [6]) worked out at 90%. Besides, the inhibition at 100 µM in data set [4] was determined as 55%.
